Experimental data as given in a compilation of properties of binary mixtures (doi:10.1016/j.molliq.2005.06.001).

Test: xn = mol fraction of the nth substance listed
Settings: 298 K, 101 kPa

CCCn1cc[n+](C)c1.[Br-] + CC1COC(=O)O1
Settings	electrical conductivity [S/m]
x1 = 0.004	0.09
x2 = 0	0.03
x2 = 0.19	0.07
x2 = 0.27	0.09
x2 = 0.38	0.15
x2 = 0.46	0.26
x2 = 0.49	0.26
x2 = 0.55	0.42
x2 = 0.61	0.47
x2 = 0.76	0.59
x2 = 0.82	0.69
x2 = 0.89	0.73
x2 = 0.93	0.63
x2 = 0.96	0.49

CC[n+]1ccn(C)c1.F[B-](F)(F)F + CC1COC(=O)O1
Settings	electrical conductivity [S/m]
x1 = 0.001	0.05
x2 = 0	1.39
x2 = 0.37	1.73
x2 = 0.55	1.85
x2 = 0.65	1.87
x2 = 0.75	1.8
x2 = 0.95	0.99

CNC=O + CC[n+]1ccn(C)c1.F[B-](F)(F)F
Settings	electrical conductivity [S/m]
x1 = 0.05	1.59
x1 = 0.11	1.79
x1 = 0.31	2.26
x1 = 0.57	2.97
x1 = 0.72	3.15
x1 = 0.78	3.26
x1 = 0.86	3.05
x1 = 0.91	2.62
x2 = 0.001	0.34

Cn1ccnc1 + CC[n+]1ccn(C)c1.F[B-](F)(F)F
Settings	electrical conductivity [S/m]
x1 = 0.1	1.67
x1 = 0.19	1.72
x1 = 0.31	1.83
x1 = 0.41	1.91
x1 = 0.51	2.01
x1 = 0.61	2.11
x1 = 0.7	2.15
x1 = 0.8	2.12
x1 = 0.85	1.85
x1 = 0.9	1.7
x1 = 0.95	1.18
x2 = 0.003	0.14

CCCn1cc[n+](C)c1.[Br-] + O
Settings	electrical conductivity [S/m]
x1 = 0.0002	0.16
x2 = 0	0.03
x2 = 0.22	0.155
x2 = 0.36	0.46
x2 = 0.51	1.22
x2 = 0.79	6.23
x2 = 0.96	8.92

CC[n+]1ccn(C)c1.F[B-](F)(F)F + O
Settings	electrical conductivity [S/m]
x1 = 0.0001	0.08
x1 = 0.01	4.13
x2 = 0	1.39
x2 = 0.16	2.04
x2 = 0.34	2.92
x2 = 0.47	4.11
x2 = 0.66	6.17
x2 = 0.9	9.28
x2 = 0.92	8.78
x2 = 0.95	8.32
x2 = 0.97	6.32
